Patent publication US10227290B2, “Glycosphingolipids for use in modulating immune responses” (The Regents of the University of California, priority 2012, dated 2019)

Experiments:
[1] = system: cyclophosphamide (CY) induced diabetes; details: NOD mouse model; Sharif et al.; cited from earlier work
NKT cell hybridomas = assay: IL-2 production by NKT cell hybridomas cultured with BMDCs (ELISA); assay type: cell-based, mouse
Protocol: FIGS. 4A-4C illustrate that α-GalCerBf binds CD1d and activates murine NKT cells in vitro. FIG. 4A: NKT cell hybridomas (see Example 4) were stained with anti-CD3 antibodies, and empty mCD1d tetramers or CD1d tetramers were loaded with α-GalCerBf or KRN7000. Flow cytometry plots representative of three independent experiments are shown. FIG. 4B: Hybridomas were cultured with BMDCs (bone marrow-derived dendritic cells) pre-pulsed with LPS or LPS+α-GalCerBf in the presence of control Ig or anti-CD1d blocking antibodies. IL-2 secretion was measured in supernatants 16 hr later. Data are representative of three independent experiments. FIG. 4C: Liver mononuclear cells were cultured with splenocytes plus increasing amounts of α-GalCerBf in the presence or absence of anti-CD1d blocking antibodies. IFN-γ secretion was measured in supernatants on day 5. Data are representative of three independent experiments.
BMDCs and NKT hybridomas were cultured at a 3:1 hybridoma:BMDC ratio and the indicated doses of KRN7000 or α-GalCerBf in the presence of 1 μg/ml LPS. Supernatants were harvested after 24 hrs, and IL-2 production was measured by ELISA. […]
NKT hybridomas were stimulated in dose titration experiments. […] Supernatants were harvested after 24 hr, and IL-2 production was measured by ELISA. […] Supernatants were harvested after 16-18 hr and IL-2 production was measured by ELISA.

[2] = system: Peripheral blood mononuclear cells (PBMCs), CD3+Vα24+ NKT cells; assay: In vitro expansion of CD3+Vα24+ NKT cells from human PBMCs; assay type: cell-based; details: 13 days; 0.1 μg/ml KRN7000, 1 μg/ml α-GalCerBf, 1 μg/ml ceramideBf
Protocol: FIGS. 6A and 6B illustrate that α-GalCerBf binds human CD1d and activates human NKT cells in vitro. FIG. 6A: PBMCs were cultured for 13 days with 0.1 μg/mlKRN7000, 1 μg/ml α-GalCerBf, or 1 μg/ml ceramideBf. Dot plots show CD3^+Vα24^+NKT cells pre- and post-expansion. The data shown are representative of at least two individual experiments performed with six individual donors. FIG. 6B: Human NKT cells were purified after two rounds of expansion with 1 μg/ml α-GalCerBf and restimulated with 10 μg/ml α-GalCerBf in the presence or absence of control Ig or anti-Cd1d blocking antibodies. IFN-γ secretion was measured in supernatants 40-48 hours later. Data are representative of two independent experiments.
The capability of α-GalCerBf to stimulate freshly isolated NKT cells was determined. A first experiment was performed to determine whether Vα24^+ cells could be expanded in vitro with α-GalCerBf as previously described for KRN7000 (see, e.g., Rogers et al., J. Immunol. Meth. 285:197-214 (2004)). Peripheral blood mononuclear cells (PBMCs) were cultured with 0.1 μg/ml KRN7000, 1 μg/ml α-GalCerBf, or 1 μg/ml ceramideBf for 13 days. The presence of CD3 Vα24^+ cells was then assessed by flow cytometry. At least two individual experiments performed with six individual donors. […] IFN-γ secretion was measured in supernatants 40-48 hours later.

## CCCCCCCCCCCCCCCCCCCCCCCCCC(=O)N[C@@H](CO[C@H]1O[C@H](CO)[C@H](O)[C@H](O)[C@H]1O)[C@H](O)[C@H](O)CCCCCCCCCCCCCC [KRN7000]
[1]
  Effect on cyclophosphamide (CY) induced diabetes: prevents
NKT cell hybridomas; hybridoma 1.2
  Sensitivity of hybridoma to KRN7000 relative to α-GalCerBf (IL-2): 30 fold
NKT cell hybridomas; hybridoma 1.4
  Sensitivity of hybridoma to KRN7000 relative to α-GalCerBf (IL-2): 80 fold
[2]
  Expansion of a population of CD3+Vα24+ cells: showed an expansion
